Each molecule was assayed on C. violaceum CV026 (assay: Measurement of IC50 of compounds having an inhibitory effect on C. violaceum quorum sensing (purple pigment absorbance at 585 nm)). Conditions: Chromobacterium violaceum, CV026, read-out: IC50 of compounds having bacterial quorum sensing inhibitory activity.
Format: cell-based
Procedure: 2. Measurement of IC50 of Compounds Having an Inhibitory Effect on C. violaceum Quorum Sensing
2.1 The wells of a 12-well plate were marked as initial concentration group, 2, 4, 8, 16, 32, 64, 128, and 256 fold diluted group, DMSO group, and a blank control group from left to right and from up to bottom, respectively.
2.2 The monoclonal C. violaceum CV026 grew on LB solid plate was cultured to exponential phase in a 5 ml fresh LB liquid culture medium, and 50 μl was then taken for seeding in a 5 ml LB culture medium, and cultured until the optical density OD value was about 1.0. The culture was then mixed homogeneously with LB culture medium at a ratio of 1:9 (at an OD of about 0.15), and added to a 12-well plate in an amount of 2 ml/well.
2.3 The compounds having quorum sensing inhibitory activity in preliminarily screening were dissolved in DMSO (at a concentration of 0.065M), respectively, and then 10 μl was taken into 10 μl DMSO solution for 2-fold dilution, and so on. Each compound was gradiently diluted to a highest fold of 256 (gradient dilution of 2, 4, 8, 16, 32, 64, 128, 256 fold).
2.4 To each well, 15 μl 1000-fold diluted inducer C6-HSL (initial concentration of 0.125M) and 8 μl compound solution at each diluted gradient was added; to the DMSO group, 8 μl DMSO was added; to the blank control group, 8 μl LB culture medium was added. Finally, it was ensured that 2 ml culture in each of the 12-well plate was mixed homogeneously.
2.5 The 12-well plate was placed in a 30° C. shaker at 130 rpm and cultured for 10-12 h.
2.6 After the culture was finished, 1 ml culture was taken from each well and put in a 1.5 ml EP tube and then centrifuged at 12000 rpm for 10 mins. The supernatant of the culture was sucked out, and 500 μl DMSO was added to each EP tube to dissolve the purple pigment in the culture. […] 200 μl supernatant pigment was put in a 96-well culture plate, and measured for absorbance value at 585 nm by a Microplate Reader. The absorbance value and the corresponding concentration were plotted to get the IC50 value.

| Compound | IC50 [µM] |
| --- | --- |
| Cc1ccsc1C(=O)Nc1ccc(S(=O)(=O)N[C@H]2CCOC2=O)cc1 [Compound 8, (s)-3-methyl-N-(4-(N-(2-oxotetrahydrofuran-3-yl)sulfamoyl)phenyl)thiophene-2-carboxamide] | 69.2 ± 1.42 |
| O=C(Nc1ccc(S(=O)(=O)N[C@H]2CCOC2=O)cc1)c1sccc1Br [Compound 10, (s)-3-bromo-N-(4-(N-(2-oxotetrahydrofuran-3-yl)sulfamoyl)phenyl)thiophene-2-carboxamide] | 13.5 ± 0.54 |
| O=C(Nc1ccc(S(=O)(=O)N[C@H]2CCOC2=O)cc1)c1sccc1Cl [Compound 9, (s)-3-chloro-N-(4-(N-(2-oxotetrahydrofuran-3-yl)sulfamoyl)phenyl)thiophene-2-carb oxamide] | 9.19 ± 0.34 |

Each molecule was assayed on C. violaceum CV026 (assay: Preliminary screening of bacterial quorum sensing regulatory (agonistic/inhibitory) activity on LB plate). Conditions: 1 μl of 0.065M DMSO solution spotted on LB plate with C. violaceum CV026, 30° C., 16-18 h; agonist: purple induced; inhibitor: white circle in presence of inducer C6-HSL.
Format: cell-based, Chromobacterium violaceum
Procedure: 1.1 Preparation work: compounds to be tested (Compounds 1-32 prepared in Example 1-32 and Intermediates 1-3) were weighed and then separately dissolved in 200 μl DMSO (dimethyl sulfoxide) to prepare a solution at a concentration of 0.065M. 5.0 mg inducer, N-hexanoyl homoserine lactone (C6—HSL, purchased from Sigma Company) was weighed and dissolved in 200 μl DMSO (at a concentration of 0.125M), the compounds and the inducer were all stored at 4° C. for further use. C. violaceum CV026 (donated by Professor McLean J C from Texas State University, the bacterium is the Tn-5 mutant of the wild type Chromobacterium violaceum ATCC31532; see Latifi, A., et al., Mol. Microbiol, 17, 333-343(1995) and Winson, M. K., et al., Proc. Natl. Acad. Sci. USA, 92, 9427-9431(1995)) was cultured under shaking in a shaker at 30° C., 200 rpm.
1.2 Method for preliminary screening of compounds having agonistic activity: 400 μl C. violaceum CV026 was added to 5 ml melted semi-solid LB culture medium (1% tryptone, 1% NaCl, and 0.5% yeast extract), and mixed homogeneously; the mixed culture medium was poured into a solid LB plate; when the mixed culture medium was solidified on the plate; 1 μl sample of the dissolved compound to be tested (Compounds 1-32 in Examples 1-32) was spotted on the plate; when the sample was dried in air, the plate was put in a 30° C. oven upside down and cultured for a period of 16-18 h. The agonistic activity of the compound was determined depending on whether purple strain was induced for C. violaceum CV026 on LB plate as well as the density of purple strain.
1.3 Method for preliminary screening of compounds having inhibitory activity: the inducer C6-HSL was diluted gradiently to 1000 times by means of 2-fold dilution; 15 μl of the diluted inducer and 400 μl C. violaceum CV026 in exponential phase were mixed homogeneously and then added to a 5 ml melted semi-solid LB culture medium; the mixture of inducer, C. violaceum, and semi-solid LB culture medium were poured onto a solid LB plate; when the mixture was solidified on the plate, 1 μl sample of the dissolved compound to be tested (Compounds 1-32 in Examples 1-32 and Intermediates 1-3) was spotted on the plate; when the sample was dried in air, the plate was put in a 30° C. oven upside down and was cultured for a period of 16-18 h. The inhibitory activity of a compound was preliminary determined depending on the size of the white circle appeared after C. violaceum CV026 was inhibited on LB plate.
It is found, after preliminary screening, that 17 compounds according to the invention have bacterial quorum sensing regulatory activity, and the screening result was shown in Table 1.

| Compound | Regulatory activity (bacterial quorum sensing) |
| --- | --- |
| O=C(Cc1ccc(F)cc1)Nc1ccc(S(=O)(=O)N[C@H]2CCOC2=O)cc1 [Compound 20, (S)-4-fluoro-N-(4-(N-(2-oxotetrahydrofuran-3-yl)sulfamoyl)phenyl)benzeneacetamide] | − |
| Cc1ccsc1C(=O)Nc1ccc(S(=O)(=O)N[C@H]2CCOC2=O)cc1 [Compound 8, (s)-3-methyl-N-(4-(N-(2-oxotetrahydrofuran-3-yl)sulfamoyl)phenyl)thiophene-2-carboxamide] | − |
| O=C(Nc1ccc(S(=O)(=O)N[C@H]2CCOC2=O)cc1)c1ccc(Cl)s1 [Compound 3, (s)-5-chloro-N-(4-(N-(2-oxotetrahydrofuran-3-yl)sulfamoyl)phenyl)thiophene-2-carb oxamide] | − |
| O=C(Nc1ccc(S(=O)(=O)NC2CCOC2=O)cc1)c1ccc[nH]1 (stereo not shown) [Compound 17, (s)-1H—N-(4-(N-(2-oxotetrahydrofuran-3-yl)sulfamoyl)phenyl)pyrrole-2-carboxamide] | − |
| Cc1occc1C(=O)Nc1ccc(S(=O)(=O)N[C@H]2CCOC2=O)cc1 [Compound 15, (s)-2-methyl-N-(4-(N-(2-oxotetrahydrofuran-3-yl)sulfamoyl)phenyl)furan-3-carboxamide] | − |
| CC(=O)Nc1ccc(S(=O)(=O)N[C@H]2CCOC2=O)cc1 [Intermediate 2, (s)-N-(4-(N-(2-oxotetrahydrofuran-3-yl)sulfamoyl)phenyl)acetamide] | − |
| O=C(Nc1ccc(S(=O)(=O)N[C@H]2CCOC2=O)cc1)c1sccc1Br [Compound 10, (s)-3-bromo-N-(4-(N-(2-oxotetrahydrofuran-3-yl)sulfamoyl)phenyl)thiophene-2-carboxamide] | − |
| O=C(Nc1ccc(S(=O)(=O)N[C@H]2CCOC2=O)cc1)c1ccc([N+](=O)[O-])o1 [Compound 13, (s)-5-nitro-N-(4-(N-(2-oxotetrahydrofuran-3-yl)sulfamoyl)phenyl)furan-2-carboxamide] | − |
| O=C(Nc1ccc(S(=O)(=O)N[C@H]2CCOC2=O)cc1)c1cc(Br)cs1 [Compound 6, (s)-4-bromo-N-(4-(N-(2-oxotetrahydrofuran-3-yl)sulfamoyl)phenyl)thiophene-2-carb oxamide] | − |
| O=C(Nc1ccc(S(=O)(=O)N[C@H]2CCOC2=O)cc1)c1ccco1 [Compound 11, (s)-N-(4-(N-(2-oxotetrahydrofuran-3-yl)sulfamoyl)phenyl)furan-2-carboxamide] | ± |
| O=C(Nc1ccc(S(=O)(=O)N[C@H]2CCOC2=O)cc1)c1ccc(Br)s1 [Compound 4, (s)-5-bromo-N-(4-(N-(2-oxotetrahydrofuran-3-yl)sulfamoyl)phenyl)thiophene-2-carb oxamide] | − |
| O=C(Nc1ccc(S(=O)(=O)N[C@H]2CCOC2=O)cc1)c1ccoc1 [Compound 12, (s)-N-(4-(N-(2-oxotetrahydrofuran-3-yl)sulfamoyl)phenyl)furan-3-carboxamide] | − |
| O=C(Cc1ccccc1F)Nc1ccc(S(=O)(=O)N[C@H]2CCOC2=O)cc1 [Compound 27, (S)-2-fluoro-N-(4-(N-(2-oxotetrahydrofuran-3-yl)sulfamoyl)phenyl)benzeneacetamide] | + |
| Br.NC1CCOC1=O (stereo not shown) [Intermediate 1, (L)-homoserine lactone hydrobromide] | + |
| Cc1csc(C(=O)Nc2ccc(S(=O)(=O)N[C@H]3CCOC3=O)cc2)c1 [Compound 7, (s)-4-methyl-N-(4-(N-(2-oxotetrahydrofuran-3-yl)sulfamoyl)phenyl)thiophene-2-carboxamide] | − |
| O=C(Nc1ccc(S(=O)(=O)N[C@H]2CCOC2=O)cc1)c1cccs1 [Compound 1, (s)-N-(4-(N-(2-oxotetrahydrofuran-3-yl)sulfamoyl)phenyl)thiophene-2-carboxamide] | − |
| O=C(Nc1ccc(S(=O)(=O)N[C@H]2CCOC2=O)cc1)c1sccc1Cl [Compound 9, (s)-3-chloro-N-(4-(N-(2-oxotetrahydrofuran-3-yl)sulfamoyl)phenyl)thiophene-2-carb oxamide] | − |
| O=C(Cc1ccc(Cl)cc1)Nc1ccc(S(=O)(=O)N[C@H]2CCOC2=O)cc1 [Compound 21, (S)-4-chloro-N-(4-(N-(2-oxotetrahydrofuran-3-yl)sulfamoyl)phenyl)benzeneacetamide] | − |
| O=C(Nc1ccc(S(=O)(=O)N[C@H]2CCOC2=O)cc1)c1ccsc1 [Compound 2, (s)-N-(4-(N-(2-oxotetrahydrofuran-3-yl)sulfamoyl)phenyl)thiophene-3-carboxamide] | − |

Source: patent publication US10071994B2, “N-sulfonyl homoserine lactone derivatives, preparation method and use thereof” (priority 2014, dated 2018)
